From patent publication US8846686B2, “Compounds useful as inhibitors of ATR kinase” (Vertex Pharmaceuticals Incorporated, priority 2011, dated 2014)

Legend:
[1] = test system: Colo205 model; assay: COLO205 model with irinotecan as the DNA damaging agent; assay type: in vivo, mouse
From the text: (§1) T/C=tumour size of treatment group compared with control group

[2] = test system: primary NSCLC model; assay: Primary non-small cell lung cancer (NSCLC) model with cisplatin as the DNA damaging agent; assay type: in vivo, mouse
From the text: as §1

[3] = test system: HCT116 colorectal cancer cells; assay: Cisplatin sensitization assay, 96 h cell viability (MTS); assay type: cell-based; settings: concentration of compound required to reduce the IC50 of Cisplatin alone by at least 3-fold; HCT116, 96 h
Experimental: Compounds can be screened for their ability to sensitize HCT116 colorectal cancer cells to Cisplatin using a 96 h cell viability (MTS) assay. […] Compounds and Cisplatin are then both added simultaneously to the cell media in 2-fold serial dilutions from a top final concentration of 10 μM as a full matrix of concentrations in a final cell volume of 200 μl, and the cells are then incubated at 37° C. in 5% CO2. After 96 h, 40 μl of MTS reagent (Promega G358a) is added to each well and the cells are incubated for 1 h at 37° C. in 5% CO2. Finally, absorbance is measured at 490 nm using a SpectraMax Plus 384 reader (Molecular Devices) and the concentration of compound required to reduce the IC50 of Cisplatin alone by at least 3-fold (to 1 decimal place) can be reported.

[4] = test system: HCT116 colorectal cancer cells; assay: Single agent HCT116 activity, 96 h cell viability (MTS) assay; assay type: cell-based; settings: Homo sapiens, HCT-116; 96 h MTS cell viability; read-out: Single agent HT116 IC50
Experimental: Compounds can be screened for single agent activity against HCT116 colorectal cancer cells using a 96 h cell viability (MTS) assay. HCT116 are plated at 470 cells per well in 96-well polystyrene plates (Costar 3596) in 150 μl of McCoy's 5A media (Sigma M8403) supplemented with 10% foetal bovine serum (JRH Biosciences 12003), Penicillin/Streptomycin solution diluted 1:100 (Sigma P7539), and 2 mM L-glumtamine (Sigma G7513), and allowed to adhere overnight at 37° C. in 5% CO2. Compounds are then added to the cell media in 2-fold serial dilutions from a top final concentration of 10 μM as a full matrix of concentrations in a final cell volume of 200 μl, and the cells are then incubated at 37° C. in 5% CO2. After 96 h, 40 μl of MTS reagent (Promega G358a) is added to each well and the cells are incubated for 1 h at 37° C. in 5% CO2. Finally, absorbance is measured at 490 nm using a SpectraMax Plus 384 reader (Molecular Devices) and IC50 values can be calculated.

[5] = molecular target: T1, full-length ATR (Homo sapiens, UniProt Q13535); assay: ATR inhibition assay (radioactive-phosphate incorporation); assay type: biochemical; settings: Ki(app), 5 nM full-length ATR, 10 μM ATP
T1 construct: Assays are carried out at 25° C. in the presence of 5 nM full-length ATR
T1 sequence (Q13535 whole entry): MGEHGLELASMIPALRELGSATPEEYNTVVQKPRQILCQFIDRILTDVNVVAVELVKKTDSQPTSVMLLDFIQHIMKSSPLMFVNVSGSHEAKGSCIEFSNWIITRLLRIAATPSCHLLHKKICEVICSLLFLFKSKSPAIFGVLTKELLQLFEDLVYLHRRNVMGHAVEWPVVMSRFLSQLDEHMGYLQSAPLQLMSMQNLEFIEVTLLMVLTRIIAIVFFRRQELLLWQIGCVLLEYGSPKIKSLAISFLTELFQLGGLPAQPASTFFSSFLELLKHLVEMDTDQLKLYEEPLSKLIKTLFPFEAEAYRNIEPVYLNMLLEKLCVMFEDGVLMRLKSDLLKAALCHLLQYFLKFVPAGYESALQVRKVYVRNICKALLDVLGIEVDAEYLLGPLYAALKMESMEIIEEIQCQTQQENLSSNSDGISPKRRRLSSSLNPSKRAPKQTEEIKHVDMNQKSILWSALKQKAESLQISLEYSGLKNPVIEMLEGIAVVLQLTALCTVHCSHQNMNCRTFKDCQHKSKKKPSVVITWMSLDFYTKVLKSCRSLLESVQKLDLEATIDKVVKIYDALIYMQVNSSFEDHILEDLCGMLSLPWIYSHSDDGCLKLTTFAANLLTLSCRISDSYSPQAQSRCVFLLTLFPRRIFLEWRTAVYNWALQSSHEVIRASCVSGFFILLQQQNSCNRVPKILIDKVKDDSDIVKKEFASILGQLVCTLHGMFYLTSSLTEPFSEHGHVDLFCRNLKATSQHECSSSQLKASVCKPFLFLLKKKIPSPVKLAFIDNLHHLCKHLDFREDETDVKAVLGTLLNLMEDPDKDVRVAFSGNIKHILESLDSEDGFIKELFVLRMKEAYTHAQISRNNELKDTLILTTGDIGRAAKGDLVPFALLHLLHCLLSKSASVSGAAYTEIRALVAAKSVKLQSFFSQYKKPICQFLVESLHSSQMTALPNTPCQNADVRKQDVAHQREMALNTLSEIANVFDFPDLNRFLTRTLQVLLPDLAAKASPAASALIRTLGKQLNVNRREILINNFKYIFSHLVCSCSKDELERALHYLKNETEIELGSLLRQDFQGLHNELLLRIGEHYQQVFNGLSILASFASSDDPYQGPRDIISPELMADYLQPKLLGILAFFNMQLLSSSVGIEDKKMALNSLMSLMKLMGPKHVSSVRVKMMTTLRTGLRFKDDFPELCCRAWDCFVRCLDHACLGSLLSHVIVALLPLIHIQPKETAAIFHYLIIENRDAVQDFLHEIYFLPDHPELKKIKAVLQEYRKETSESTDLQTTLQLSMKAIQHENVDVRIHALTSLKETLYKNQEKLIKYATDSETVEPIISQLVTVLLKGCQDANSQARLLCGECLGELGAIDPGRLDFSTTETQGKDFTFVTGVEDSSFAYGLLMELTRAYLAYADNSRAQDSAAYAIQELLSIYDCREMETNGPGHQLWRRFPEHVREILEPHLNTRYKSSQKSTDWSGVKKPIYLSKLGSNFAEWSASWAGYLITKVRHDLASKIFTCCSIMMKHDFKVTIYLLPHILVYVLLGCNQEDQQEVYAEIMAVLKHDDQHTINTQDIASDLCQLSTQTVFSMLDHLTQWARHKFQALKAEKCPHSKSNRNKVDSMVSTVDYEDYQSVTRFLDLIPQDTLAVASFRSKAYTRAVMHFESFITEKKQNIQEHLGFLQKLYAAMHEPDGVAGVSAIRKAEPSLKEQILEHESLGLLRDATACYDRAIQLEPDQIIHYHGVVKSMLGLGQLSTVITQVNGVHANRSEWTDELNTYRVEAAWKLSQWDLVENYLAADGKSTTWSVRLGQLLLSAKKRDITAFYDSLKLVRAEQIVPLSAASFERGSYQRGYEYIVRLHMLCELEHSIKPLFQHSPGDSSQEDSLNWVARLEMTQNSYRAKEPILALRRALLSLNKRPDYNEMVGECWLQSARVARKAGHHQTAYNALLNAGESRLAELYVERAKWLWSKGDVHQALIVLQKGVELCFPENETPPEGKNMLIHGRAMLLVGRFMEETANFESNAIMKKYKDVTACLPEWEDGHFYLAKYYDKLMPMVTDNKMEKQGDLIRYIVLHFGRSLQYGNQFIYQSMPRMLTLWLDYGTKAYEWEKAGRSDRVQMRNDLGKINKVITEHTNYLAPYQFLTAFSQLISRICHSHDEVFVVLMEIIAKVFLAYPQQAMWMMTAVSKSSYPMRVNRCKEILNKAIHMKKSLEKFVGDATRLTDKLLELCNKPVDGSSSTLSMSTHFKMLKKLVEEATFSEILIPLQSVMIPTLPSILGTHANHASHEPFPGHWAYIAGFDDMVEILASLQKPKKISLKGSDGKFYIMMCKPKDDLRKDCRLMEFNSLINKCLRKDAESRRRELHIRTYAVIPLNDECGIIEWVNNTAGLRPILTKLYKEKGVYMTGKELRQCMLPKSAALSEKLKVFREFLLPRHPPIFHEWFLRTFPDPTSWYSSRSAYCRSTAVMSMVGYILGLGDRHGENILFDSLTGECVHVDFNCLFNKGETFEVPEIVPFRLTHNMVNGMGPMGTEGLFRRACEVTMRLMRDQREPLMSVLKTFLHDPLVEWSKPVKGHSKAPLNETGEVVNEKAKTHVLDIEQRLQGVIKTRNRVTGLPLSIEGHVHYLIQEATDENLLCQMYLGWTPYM
Experimental: Compounds can be screened for their ability to inhibit ATR kinase using a radioactive-phosphate incorporation assay. Assays are carried out in a mixture of 50 mM Tris/HCl (pH 7.5), 10 mM MgCl2 and 1 mM DTT. Final substrate concentrations are 10 μM [γ-33P]ATP (3 mCi ^33P ATP/mmol ATP, Perkin Elmer) and 800 μM target peptide (ASELPASQPQPFSAKKK (SEQUENCE ID NO: 1)).
Assays are carried out at 25° C. in the presence of 5 nM full-length ATR. An assay stock buffer solution is prepared containing all of the reagents listed above, with the exception of ATP and the test compound of interest. 13.5 μL of the stock solution is placed in a 96 well plate followed by addition of 2 μL of DMSO stock containing serial dilutions of the test compound (typically starting from a final concentration of 15 μM with 3-fold serial dilutions) in duplicate (final DMSO concentration 7%). The plate is pre-incubated for 10 minutes at 25° C. and the reaction initiated by addition of 15 μL [γ-33P]ATP (final concentration 10 μM).
The reaction is stopped after 24 hours by the addition of 30 μL 0.1M phosphoric acid containing 2 mM ATP. A multiscreen phosphocellulose filter 96-well plate (Millipore, Cat no. MAPHN0B50) is pretreated with 100 μL 0.2M phosphoric acid prior to the addition of 45 μL of the stopped assay mixture. The plate is washed with 5×200 μL 0.2M phosphoric acid. After drying, 100 μL Optiphase ‘SuperMix’ liquid scintillation cocktail (Perkin Elmer) is added to the well prior to scintillation counting (1450 Microbeta Liquid Scintillation Counter, Wallac).
After removing mean background values for all of the data points, Ki(app) data are calculated from non-linear regression analysis of the initial rate data using the Prism software package (GraphPad Prism version 3.0cx for Macintosh, GraphPad Software, San Diego Calif., USA).

[6] = molecular target: T2, intracellular ATR (Homo sapiens, UniProt Q13535); assay: Cellular ATR inhibition assay (H2AX phosphorylation in hydroxyurea treated HT29 cells); assay type: cell-based; settings: 2 mM hydroxyurea, phosphorylated H2AX-positive nuclei
T2 construct: endogenous in cells; host or cells: HT29
T2 sequence (Q13535 whole entry): as above
T2 sequence (Q8WXE1 whole entry partner): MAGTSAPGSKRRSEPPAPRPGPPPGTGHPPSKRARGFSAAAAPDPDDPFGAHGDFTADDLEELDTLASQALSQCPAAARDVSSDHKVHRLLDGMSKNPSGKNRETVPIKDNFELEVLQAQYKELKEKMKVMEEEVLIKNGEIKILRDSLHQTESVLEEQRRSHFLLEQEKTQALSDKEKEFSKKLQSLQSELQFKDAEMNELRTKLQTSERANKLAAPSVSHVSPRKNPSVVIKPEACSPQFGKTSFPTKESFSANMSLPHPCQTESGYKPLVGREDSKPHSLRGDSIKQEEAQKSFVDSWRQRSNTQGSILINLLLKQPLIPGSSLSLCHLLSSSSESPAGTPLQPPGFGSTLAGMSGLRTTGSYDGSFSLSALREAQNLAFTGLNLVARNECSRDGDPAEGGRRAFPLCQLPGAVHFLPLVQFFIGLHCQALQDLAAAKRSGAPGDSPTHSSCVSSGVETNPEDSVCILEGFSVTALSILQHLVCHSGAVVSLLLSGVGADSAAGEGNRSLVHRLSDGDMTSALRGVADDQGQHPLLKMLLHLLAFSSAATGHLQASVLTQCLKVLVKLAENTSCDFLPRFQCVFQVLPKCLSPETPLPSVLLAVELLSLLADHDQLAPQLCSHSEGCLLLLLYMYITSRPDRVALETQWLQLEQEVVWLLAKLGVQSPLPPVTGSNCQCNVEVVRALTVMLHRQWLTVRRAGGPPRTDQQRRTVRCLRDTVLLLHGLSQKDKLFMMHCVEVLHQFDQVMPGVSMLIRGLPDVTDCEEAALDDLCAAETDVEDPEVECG
Experimental: Compounds can be screened for their ability to inhibit intracellular ATR using an immunofluorescence microscopy assay to detect phosphorylation of the ATR substrate histone H2AX in hydroxyurea treated cells. HT29 cells are plated at 14,000 cells per well in 96-well black imaging plates (BD 353219) in McCoy's 5A media (Sigma M8403) supplemented with 10% foetal bovine serum (JRH Biosciences 12003), Penicillin/Streptomycin solution diluted 1:100 (Sigma P7539), and 2 mM L-glumtamine (Sigma G7513), and allowed to adhere overnight at 37° C. in 5% CO2. Compounds are then added to the cell media from a final concentration of 25 μM in 3-fold serial dilutions and the cells are incubated at 37° C. in 5% CO2. After 15 min, hydroxyurea (Sigma H8627) is added to a final concentration of 2 mM.
After 45 min of treatment with hydroxyurea, the cells are washed in PBS, fixed for 10 min in 4% formaldehyde diluted in PBS (Polysciences Inc 18814), washed in 0.2% Tween-20 in PBS (wash buffer), and permeabilised for 10 min in 0.5% Triton X-100 in PBS, all at room temperature. The cells are then washed once in wash buffer and blocked for 30 min at room temperature in 10% goat serum (Sigma G9023) diluted in wash buffer (block buffer). […]
Cells are imaged for Alexa Fluor 488 and Hoechst intensity using the BD Pathway 855 Bioimager and Attovision software (BD Biosciences, Version 1.6/855) to quantify phosphorylated H2AX Ser139 and DNA staining, respectively. The percentage of phosphorylated H2AX-positive nuclei in a montage of 9 images at 20× magnification is then calculated for each well using BD Image Data Explorer software (BD Biosciences Version 2.2.15). […] The percentage of H2AX positive nuclei is finally plotted against concentration for each compound and IC50s for intracellular ATR inhibition are determined using Prism software (GraphPad Prism version 3.0cx for Macintosh, GraphPad Software, San Diego Calif., USA).

[7] = Pharmacokinetics (noncompartmental, blood or plasma); settings: in vivo, intravenous (IV) dosing
From the text: Noncompartmental pharmacokinetic parameters can be analyzed using Watson Bioanalytical LIMS (Version 7.4; Thermo Fisher Scientific) from either the blood or plasma samples. The following parameters are estimated following intravenous (IV) dosing; terminal elimination half-life (T1/2=ln(2)/λz, where λz is the first order rate constant associated with the terminal (log-linear) portion of the curve. The area under the curve (AUClast=area under the curve from the time of dosing to the last measurable concentration). The area under the curve extrapolated to infinity (AUC0-∞=AUClast+Clast/λz). The clearance (Cl; Cl=DoseIV/AUC0-∞).
The area under the first moment curve (AUMClast=area under the concentration times time versus time curve from the time of dosing to the last measurable concentration). The area under the first moment curve extrapolated to infinity (AUMC0-∞=AUMClast+Clast×t/λz+Clast/λz^2). The mean residence time (MRT=AUMC0-∞/AUC0-∞) and the steady state volume of distribution (Vdss=MRT×Cl).
Clearance and volume of distribution can also be obtained using methods known to one of skill in the art (see e.g., Handbook of Essential Pharmacokinetics, Pharmacodynamics and Drug Metabolism for Industrial Scientists, Younggil Kwon, pp 18-28 (Non-compartmental Approach)).

[8] = Mouse PO/PK in tumor (FIG. 6); assay type: in vivo; settings: mouse grafted with tumors, compared with Compound P-110
From the text: FIG. 6: Mouse PO/PK in tumor

IC50 [4] [nM] | Ki [5] [nM] | IC50 [6] [nM] | clearance [7] [mL/min/kg] | half-life [7] [h] | Vd ([7]; read-out: Vss) [L/kg] | Compound | Sensitization ([1]; same model (irinotecan), compound 45 mg/kg twice a day (bid)) | Sensitisation ([2]; same model (cisplatin), compound 30 mpk bid (on/1 day off)) | Cisplatin sensitization [3] [nM] | % T/C (tumour size of treatment group compared with control group) ([1]; day 13, irinotecan 20 mg/kg, compound 40 mg/kg PO qd3 of a four-day cycle, five cycles) [%] | Effect on tumors ([1]; irinotecan 20 mg/kg, compound orally as a solution 40 mg/kg, PO qd3, five cycles) | Oral exposure in tumors [8] | Effect on tumors ([2]; cisplatin 3 mg/kg, compound 30 mg/kg uid q2d) | % T/C (tumour size of treatment group compared with control group) ([2]; day 20, cisplatin 3 mg/kg, compound 30 mg/kg uid q2d) [%]
280 | 0.26 | 46 | – | – | – | CC(C)S(=O)(=O)c1ccc(-c2cnc(N)c(-c3cc(-c4ccc(CN[C@H]5CCOC5)cc4)no3)n2)cc1 [P-110 (S), reference compound] | – | – | 156 | – | – | – | – | –
205 | 0.29 | 54 | 12.7 | 2.7 | – | CC(C)S(=O)(=O)c1ccc(-c2cnc(N)c(-c3cc(-c4ccc(CN[C@@H]5CCOC5)cc4)no3)n2)cc1 [P-110 (R), reference compound] | – | – | 78 | – | – | – | – | –
83 | 0.14 | 13 | 7.1 | 4.7 | 2.8 | CC(C)S(=O)(=O)c1ccc(-c2cnc(N)c(-c3cc(-c4ccc(CNC5CCOCC5)cc4)no3)n2)cc1 [Compound I-1] | – | – | 39 | 10.9 | marked regression of tumors | created oral exposure in tumors compared with Compound P-110 | marked regression of tumors | 1.7

Continued, compound first:

Compound | IC50 [4] [nM] | Ki [5] [nM] | IC50 [6] [nM] | clearance [7] [mL/min/kg] | half-life [7] [h] | Vd ([7]; read-out: Vss) [L/kg] | Sensitization ([1]; same model (irinotecan), compound 45 mg/kg twice a day (bid)) | Sensitisation ([2]; same model (cisplatin), compound 30 mpk bid (on/1 day off)) | Cisplatin sensitization [3] [nM] | % T/C (tumour size of treatment group compared with control group) ([1]; day 13, irinotecan 20 mg/kg, compound 40 mg/kg PO qd3 of a four-day cycle, five cycles) [%] | Effect on tumors ([1]; irinotecan 20 mg/kg, compound orally as a solution 40 mg/kg, PO qd3, five cycles) | Oral exposure in tumors [8] | Effect on tumors ([2]; cisplatin 3 mg/kg, compound 30 mg/kg uid q2d) | % T/C (tumour size of treatment group compared with control group) ([2]; day 20, cisplatin 3 mg/kg, compound 30 mg/kg uid q2d) [%]
CC(C)S(=O)(=O)c1ccc(-c2cnc(N)c(-c3cc(-c4ccc(CN[C@H]5CCOC5)cc4)no3)n2)cc1 [Compound P-110, reference compound] | – | – | – | – | – | – | no sensitization | no sensitisation | – | – | – | – | – | –
[2H]C([2H])([2H])C([2H])(C([2H])([2H])[2H])S(=O)(=O)c1ccc(-c2cnc(N)c(-c3cc(-c4ccc(CNC5CCOCC5)cc4)no3)n2)cc1 [Compound II-2, 5-[4-[1,2,2,2-tetradeuterio-1-(trideuteriomethyl)ethyl]sulfonylphenyl]-3-[3-[4-[(tetrahydropyran-4-ylamino)methyl]phenyl]isoxazol-5-yl]pyrazin-2-amine] | 59 | 0.105 | – | – | – | – | – | – | 39 | – | – | – | – | –
